For this test, the target named is T1, FPRL1 (Homo sapiens, UniProt P25090).
T1 construct: expressed in transfected cells; host or cells: RBL-2H3 (rat basophilic leukemia) cells, G418-selected
T1 sequence (P25090 1-351): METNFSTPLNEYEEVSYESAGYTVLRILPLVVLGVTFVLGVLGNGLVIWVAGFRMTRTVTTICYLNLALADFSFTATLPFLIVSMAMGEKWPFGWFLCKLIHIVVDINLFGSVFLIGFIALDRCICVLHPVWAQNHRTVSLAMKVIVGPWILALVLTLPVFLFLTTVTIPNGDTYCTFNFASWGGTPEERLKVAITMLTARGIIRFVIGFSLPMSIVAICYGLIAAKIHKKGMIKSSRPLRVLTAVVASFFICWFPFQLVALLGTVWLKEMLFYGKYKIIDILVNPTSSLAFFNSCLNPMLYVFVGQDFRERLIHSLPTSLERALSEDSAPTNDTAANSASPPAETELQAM
The test can be described thus: ERK phosphorylation in FPRL1-expressing RBL-2H3 cells (immunoblot). Format: cell-based. On the procedure: Cultured RBL-2H3 cells were aliquoted into 2×10^6 cells and stimulated with the indicated concentrations of WKYMVm and the peptides of the present invention for the indicated lengths of time. FPR- or FPRL1-expressing RBL-2H3 cells were stimulated with 1 μM WKYMVm for various periods of time (FIG. 3A). Two cells were preincubated with a vehicle or 100 ng/ml of PTX (24 hr), 50 μM of LY294002 (15 min), 5 μM of GFX (15 min), 10 μM BAPTA/AM (60 min), or 50 μM PD98059 (60 min) prior to 1 μM of WKYMVm treatment (FIG. 3B). FPR- or FPRL1-expressing RBL2H3 cells were stimulated with 10 μM of the peptides of the present invention for 2 min or 5 min, respectively (FIG. 3C).
After stimulation, the cells were washed with serum-free RPMI and lysed in a lysis buffer (20 mM Hepes, pH 7.2, 10% glycerol, 150 mM NaCl, 1% Triton X-100, 50 mM NaF, 1 mM Na3VO4, 10 μg/ml leupeptin, 10 μg/ml aprotinin, and 1 mM phenylmethylsulfonyl fluoride). The detergent-insoluble materials were pelleted by centrifugation (12,000×g, 15 min, at 4° C.), and the soluble supernatant fraction was removed and stored at −80° C. or used immediately. Protein concentrations in the lysates were determined using the Bradford protein assay reagent.
Each sample ([…] of protein) was subjected to 10% SDS-PAGE and phosphorylated ERK was determined by an immunoblot analysis with an anti-phospho-ERK antibody. Protein samples were prepared for electrophoresis by addition of a concentrated sample buffer. The portions in the samples were then separated by an 10% SDS-polyacrylamide gel using the buffer system described by Laemmli (17).
Following the electrophoresis, a western blot analysis with an anti-ERK2 antibody was performed to confirm that the same amounts of samples were used for the experiments. The proteins were blotted onto nitrocellulose membranes. The nitrocellulose membranes were then blocked by incubation with TBS (Tris-buffered saline, 0.05% Tween-20) containing 5% non-fat dry milk. Subsequently, the membranes were incubated with anti-phospho-ERK antibody, anti-phospho-Akt antibody or anti-Akt antibody washed with TBS. For a PKC translocation assay, an antibody for PKC isozyme-specific was incubated. Antigen-antibody complexes were visualized after incubating the membrane with a 1:5000 diluted goat anti-rabbit IgG or goat anti-mouse IgG antibody coupled to horseradish peroxidase and using the enhanced chemiluminescence detection system.
Background: In western blotting, separated proteins are transferred to a membrane and probed.

With `CSCC[C@H](NC(=O)[C@H](Cc1ccc(O)cc1)NC(=O)[C@H](CCCCN)NC(=O)[C@@H](N)Cc1c[nH]c2ccccc12)C(=O)N[C@H](C(=O)N[C@H](CCSC)C(N)=O)C(C)C` [WKYMVm-NH2, Trp-Lys-Tyr-Met-Val-D-Met-NH2, reference compound], the “time of maximal ERKs activity after peptide treatment” value (1 μM WKYMVm) was 5 min. Besides, the “ERKs phosphorylation/activation” value (10 μM peptides 5 min (WKYMVm time course 1 μM)) was “induced transient activation of ERKs”.

The values above are taken from patent US7517857B2, “Immune-modulating peptide” (POSCO, priority 2002, dated 2009).
